# According to US12514832B2, “Methods for using low-dose colchicine after myocardial infarction” (INSTITUT DE CARDIOLOGIE DE MONTREAL, priority 2019, dated 2026):
# Test system: patients recruited within 30 days after a myocardial infarction
# Assay: COLCOT randomized, double-blind, placebo-controlled trial: clinical efficacy end points
# Assay type: in vivo, human
# Set-up: Primary efficacy composite endpoint, % of patients with event: concentration or dose not given beside the values
# Protocol: We performed a randomized, double-blind trial involving patients recruited within 30 days after a myocardial infarction. The patients were randomly assigned to receive either low-dose colchicine (0.5 mg once daily) or placebo. A total of 4745 patients were enrolled; 2366 patients were assigned to the colchicine group, and 2379 to the placebo group. Patients were followed for a median of 22.6 months.
# The primary efficacy end point was a composite of death from cardiovascular causes, resuscitated cardiac arrest, myocardial infarction, stroke, or urgent hospitalization for angina leading to coronary revascularization. The components of the primary end point and safety were also assessed.
# In this randomized, double-blind, placebo-controlled, investigator-initiated trial, we assigned patients in a 1:1 ratio to receive either colchicine (at a dose of 0.5 mg once daily) or placebo. The trial protocol, available at NEJM.org, was designed by a trial steering committee. The protocol was approved by the institutional review board at each of the 167 centers in the 12 countries that participated in the trial (available at NEJM.org). All trial support activities, including project coordination, data management, site monitoring, and statistical oversight and analyses, were performed at the Montreal Health Innovations Coordinating Center. Potential trial end-point events were adjudicated by an independent clinical end-point committee composed of experienced cardiologists and neurologists who were unaware of the trial-group assignments. The trial was overseen by a data and safety monitoring board of independent experts. The trial medication and matching placebo were provided by Pharmascience.
# Patients were excluded if they had severe heart failure, a left ventricular ejection fraction of less than 35%, stroke within the previous 3 months, a type 2 index myocardial infarction, coronary-bypass surgery either within the previous 3 years or planned, a history of noncutaneous cancer within the previous 3 years, inflammatory bowel disease or chronic diarrhea, neuromuscular disease or a nontransient creatine kinase level that was greater than three times the upper limit of the normal range (unless due to infarction), clinically significant nontransient hematologic abnormalities, severe renal disease with a serum creatinine level that was greater than two times the upper limit of the normal range; severe hepatic disease, drug or alcohol abuse, current or planned long-term systemic glucocorticoid therapy, or a history of clinically significant sensitivity to colchicine. (Details regarding eligibility criteria are provided herein.)
# The primary efficacy end point was a composite of death from cardiovascular causes, resuscitated cardiac arrest, myocardial infarction, stroke, or urgent hospitalization for angina leading to coronary revascularization in a time-to-event analysis.
# The secondary end points consisted of the components of the primary efficacy end point; a composite of death from cardiovascular causes, resuscitated cardiac arrest, myocardial infarction, or stroke; and total mortality in time-to-event analyses. Coronary revascularization, hospitalization for heart failure, atrial fibrillation, and deep venous thrombosis or pulmonary embolus were prespecified as exploratory end points in the protocol.
# The efficacy analyses were conducted with the use of positively adjudicated data and according to the intention-to-treat principle. The primary end point was compared between the two trial groups with the use of a log-rank test, and the hazard ratio from a Cox proportional-hazards model, with a 95% confidence interval, was calculated. A Cox proportional-hazards model with adjustment for important baseline characteristics was also used as prespecified in the protocol.
# The analysis of the primary end point was repeated in the per-protocol population (i.e., patients without major protocol deviations). […]
# [1] = per-protocol population, N=2260
structure (smiles),measurement,setting,value
"COc1cc2c(c(OC)c1OC)-c1ccc(OC)c(=O)cc1[C@@H](NC(C)=O)CC2 [Colchicine, colchicine]","Primary efficacy composite endpoint, Hazard ratio","colchicine vs placebo, subgroup Female",0.99
same,"Primary efficacy composite endpoint, Hazard ratio","colchicine vs placebo, subgroup History of diabetes No",0.85
same,"Primary efficacy composite endpoint, Hazard ratio","colchicine vs placebo, subgroup History of diabetes Yes",0.65
same,"Primary efficacy composite endpoint, Hazard ratio","colchicine vs placebo, subgroup History of hypertension No",0.80
same,"Primary efficacy composite endpoint, Hazard ratio","colchicine vs placebo, subgroup History of hypertension Yes",0.76
same,"Primary efficacy composite endpoint, Hazard ratio","colchicine vs placebo, subgroup Male",0.70
same,"Primary efficacy composite endpoint, Hazard ratio","colchicine vs placebo, subgroup Non-smoker",0.90
same,"Primary efficacy composite endpoint, Hazard ratio","colchicine vs placebo, subgroup Previous smoker",0.59
same,"Primary efficacy composite endpoint, Hazard ratio","colchicine vs placebo, subgroup Prior MI No",0.68
same,"Primary efficacy composite endpoint, Hazard ratio","colchicine vs placebo, subgroup Prior MI Yes",1.05
same,"Primary efficacy composite endpoint, Hazard ratio","colchicine vs placebo, subgroup Prior PCI or CABG No",0.72
same,"Primary efficacy composite endpoint, Hazard ratio","colchicine vs placebo, subgroup Prior PCI or CABG Yes",0.91
same,"Primary efficacy composite endpoint, Hazard ratio","colchicine vs placebo, subgroup Prior stroke or TIA No",0.76
same,"Primary efficacy composite endpoint, Hazard ratio","colchicine vs placebo, subgroup Prior stroke or TIA Yes",1.09
same,"Primary efficacy composite endpoint, Hazard ratio","colchicine vs placebo, subgroup White blood cell count Above median",0.80
same,"Primary efficacy composite endpoint, Hazard ratio","colchicine vs placebo, subgroup White blood cell count Below median",0.85
same,"Primary endpoint, hazard ratio","colchicine vs placebo, women, per-protocol population",0.81 (0.47; 1.41)
same,"MI, %",[1],3.4%
same,"MI, no. of patients",[1],77
same,"Primary endpoint, % of patients",[1],5.1%
same,"Primary endpoint, no. of patients",[1],115
same,"Resuscitated cardiac arrest, %",[1],0.2%
same,"Resuscitated cardiac arrest, no. of patients",[1],5
same,"Stroke, %",[1],0.2%
same,"Stroke, no. of patients",[1],5
same,"Urgent hospitalization for angina requiring revascularization, %",[1],1.0%
same,"Urgent hospitalization for angina requiring revascularization, no. of patients",[1],22
same,"Primary efficacy composite endpoint, % of patients with event",subgroup Active smoker,5.4%
same,"Primary efficacy composite endpoint, no. of patients with event","subgroup Active smoker, total 708",38
same,"Primary efficacy composite endpoint, % of patients with event",subgroup Female,7.8%
same,"Primary efficacy composite endpoint, no. of patients with event","subgroup Female, total 472",37
same,"Primary efficacy composite endpoint, % of patients with event",subgroup History of diabetes No,4.8%
same,"Primary efficacy composite endpoint, no. of patients with event","subgroup History of diabetes No, total 1904",91
same,"Primary efficacy composite endpoint, % of patients with event",subgroup History of diabetes Yes,8.7%
same,"Primary efficacy composite endpoint, no. of patients with event","subgroup History of diabetes Yes, total 462",40
same,"Primary efficacy composite endpoint, % of patients with event",subgroup History of hypertension No,4.1%
same,"Primary efficacy composite endpoint, no. of patients with event","subgroup History of hypertension No, total 1181",48
same,"Primary efficacy composite endpoint, % of patients with event",subgroup History of hypertension Yes,7.0%
same,"Primary efficacy composite endpoint, no. of patients with event","subgroup History of hypertension Yes, total 1185",83
same,"Primary efficacy composite endpoint, % of patients with event",subgroup Male,5.0%
same,"Primary efficacy composite endpoint, no. of patients with event","subgroup Male, total 1894",94
same,"Primary efficacy composite endpoint, % of patients with event",subgroup Non-smoker,6.0%
same,"Primary efficacy composite endpoint, no. of patients with event","subgroup Non-smoker, total 787",47
same,"Primary efficacy composite endpoint, % of patients with event",subgroup Previous smoker,5.3%
same,"Primary efficacy composite endpoint, no. of patients with event","subgroup Previous smoker, total 871",46
same,"Primary efficacy composite endpoint, % of patients with event",subgroup Prior MI No,4.3%
same,"Primary efficacy composite endpoint, no. of patients with event","subgroup Prior MI No, total 1996",85
same,"Primary efficacy composite endpoint, % of patients with event",subgroup Prior MI Yes,12.4%
same,"Primary efficacy composite endpoint, no. of patients with event","subgroup Prior MI Yes, total 370",46
same,"Primary efficacy composite endpoint, % of patients with event",subgroup Prior PCI or CABG No,4.3%
same,"Primary efficacy composite endpoint, no. of patients with event","subgroup Prior PCI or CABG No, total 1947",83
same,"Primary efficacy composite endpoint, % of patients with event",subgroup Prior PCI or CABG Yes,11.5%
same,"Primary efficacy composite endpoint, no. of patients with event","subgroup Prior PCI or CABG Yes, total 419",48
same,"Primary efficacy composite endpoint, % of patients with event",subgroup Prior stroke or TIA No,5.3%
same,"Primary efficacy composite endpoint, no. of patients with event","subgroup Prior stroke or TIA No, total 2311",123
same,"Primary efficacy composite endpoint, % of patients with event",subgroup Prior stroke or TIA Yes,14.5%
same,"Primary efficacy composite endpoint, no. of patients with event","subgroup Prior stroke or TIA Yes, total 55",8
same,"Primary efficacy composite endpoint, % of patients with event",subgroup White blood cell count Above median,5.3%
same,"Primary efficacy composite endpoint, no. of patients with event","subgroup White blood cell count Above median, total 637",34
same,"Primary efficacy composite endpoint, % of patients with event",subgroup White blood cell count Below median,6.2%
same,"Primary efficacy composite endpoint, no. of patients with event","subgroup White blood cell count Below median (8.64 × 10^3/μL), total 660",41
